# Reference: US4508728A, “Method of treating inflammatory diseases” (priority 1984, dated 1985)
# What was measured:
# decubital ulcer = experiment: Clinical Case No. 6: decubital ulcer; type: in vivo, human; design: key: -: Non effective; +: Effective; ++: Remarkably effective
# Text: 1% homocarnosine ointment was applied to the cases of decubital ulcer as follows.
# aftha stomatitis = experiment: Clinical Case No. 2: aftha stomatitis; type: in vivo, human; design: key: The patients in whom the pain disappeared immediately after injection of homocarnosine solution with no subsequent pain complaints on the following day, and the ulcerated area had shrunk postoperatively were assessed as favorable ++; conditions: 0.1 ml of 0.5% solution injected
# Experimental: Patients who complained of the aftha stomatitis were injected with 0.5% homocarnosine solution.
# The patients in whom the pain disappeared immediately after injection of homocarnosine solution with no subsequent pain complaints on the following day, and the ulcerated area had shrunk postoperatively were assessed as favorable ++.
# granulation = experiment: Granulation formation, formalin filter paper method (FFP method), with quantitative analysis of hydroxyprolin; type: in vivo, rat (Wister strain male); conditions: for Hydroxyproline / Wet weight of granulation: once daily for 7 days
# Text: The promotive action of granulation by homocarnosine was examined by a routine formalin filter paper method (FFP method) and the quantitative analysis of hydroxyprolin. For experimental purposes, use was made of groups of 5 or 6 six-week old Wister strain male rats weighing around 170 g each. The hair was sheared from the backs of these animals using clippers and under ether anesthesia they were given an incision of about 1 cm by a shap surgical knife along the dorsal median line. A piece of filter paper (No. 26 product by Toyo Filter Paper Co.) was cut into circles having a diameter of 6.7 mm which were immersed in a 7% formalin solution. In each rat, these filter paper circles, 4 altogether, were inserted underneath the skin of the right and left scapular areas and under the skin about 4 cm to the rear or these areas, two circles on the right side and two on the left side. A dose of penicillin was given to prevent the possibility of infective suppuration subcutaneously and the incised portion was sutured by use of clips. On the second day after the insertion of formalin immersed filter paper, the sutures were removed and on the seventh day they were put to death under ether anesthesia by cutting the carotid vessels, from which the mass of granulations that had been formed by formalin immersed filter paper was taken out. After the entire granular mass containing filter paper was measured for wet weight, the mass from the left scapular area was used for the quantitative analysis of hydroxyprolin. Homocarnosine was prepared in an isotonic solution and was injected into the animals either subcutaneously or peritoneally once daily for seven days after the suture. When an oral administration was needed, it was made in a 15% solution and was poured into the esophagus. The mass of granulations freed from the filter paper was defatted by ethanol-ether and after being rendered in the gelatin state by an autoclave it was added with concentrated hydrochloric acid and was hydrolyzed overnight at a temperature of 105° to 110° C. After it was thickened and dried at 105° to 110° C., the product was added with 0.02N hydrochloric acid and its hydroxyprolin was quantified by a Hitachi-835 amino acid automatic analyzer in an effort to estimate the amount of collagen that had been synthesized.
# surgical wounds = experiment: Wound healing: tensile strength of sutured surgical incision on the 7th day; type: in vivo, rat (Wister strain male); conditions: for Tensile Strength, % of control / Tensile Strength, X ± S.E.: daily for 7 days
# Experimental: The healing effect of surgical wounds by homocarnosine was assessed in the following manner. Six-week old Wister strain male rats weighing around 170 g each were used. The rats which had their backs denuded over an extensive area by clippers were given an incision of about 4 cm by a sharp surgical knife along the dorsal medial line under ether anesthesia. A dosage of penicillin was administered to prevent the possibility of infective suppuration and the incision was uniformly sutured with silk threads at 3 spots. Homocarnosine was made into isotonic solution which was subcutaneously injected every day into 8 places on both sides of the incision equally for 7 days. Physiologic saline was employed as a control. The threads were removed 4 days after the formation of the incisions and the experimental animals were put to death on the 7th day under ether anesthesia, and 3 pieces of dosal skin, 3 cm in length and 1 cm in width each, were surgically cut off in such manner that the incision line lay at the middle of the piece. One side of each piece of skin was fixed and the other was pulled and the force required to separate the skin at the point the incision had been made was taken to indicate the tensile strength.
# angulus infectiosus = experiment: Clinical Case No. 3: angulus infectiosus; type: in vivo, human; design: key: those cases in which the wounds became closed on the day following homocarnosine administration were judged as ++; those in which three applications were further needed before favorable results were obvious were judged as +
# Text: 0.5% homocarnosine in the form of a paste was applied in cases of angulus infectiosus in a dosage of 0.8 g on the basis of three times daily.
# In assessing the effect of treatment, those cases in which the wounds became closed on the day following homocarnosine administration were judged as ++ and those in which three applications were further needed before favorable results were obvious were judged as +.
# cervical erosion = experiment: Clinical Case No. 5: cervical erosion; type: in vivo, human; conditions: suppository 20 mg
# Experimental: 1.7 g suppository, one suppository containing 20 mg homocarnosine, was used for the following patients suffering from cervical erosion.
# Solubility in water = type: physicochemical
# dermatitis = experiment: Clinical Case No. 9: various types of dermatitis; type: in vivo, human; design: key to Effect: -: Non effective; +: Effective; ++: Remarkably effective
# Text: 0.5% homocarnosine in the form of an ointment was applied to the following patients suffering from various types of dermatitis.
# [1] = tested on: inflammation of respiratory tract; experiment: Clinical Case No. 8: inflammation of respiratory tract, nebulizer; type: in vivo, human; design: key: -: Non effective; +: Effective; ++: Remarkably effective; conditions: 0.1% solution
# Text: 0.1% homocarnosine solution in physiological saline was used for the following patients suffering from inflammation of respiratory tract with the aid of nebulizer.
# hemorrohoid = experiment: Clinical Case No. 7: hemorrhoid; type: in vivo, human; design: key: -: Non effective; +: Effective; ++: Remarkably effective; conditions: suppository 10 mg
# Experimental: 1.7 g suppository, one suppository containing 10 mg homocarnosine, was used for the following patients suffering from hemorrohoid.
# *Conjointly administered with 0.5% homocarnosine ointment.
# dental extraction wounds = experiment: Clinical Case No. 1: dental extraction wound; type: in vivo, human; design: key to Cure (Wound Healing): ++: Found to be highly effective compared with ordinary therapy.; +: Effective; -: Noneffective; key to Postoperative pains, 2 hours / Postoperative pains, 12 hours / Postoperative pains, 24 hours: -: No subjective pains.; ±: Though subjective pains were present, no analgesic was used.; +: Subjective pains and an analgesic was administered
# Experimental: 0.5% homocarnosine injection solution was administered to the wound brought about by a dental extraction.
# herpes zoster = experiment: Clinical Case No. 4: herpes zoster; type: in vivo, human; conditions: person
# Text: 5% homocarnosine paste was applied to a case of herpes zoster.
# Region: The herpes zoster extended from the lower part of right breast to the side of body.
# Course of the complaint: The patient came for consultation after three days of subjective complaint. 1 g of 5% homocarnosine paste was applied to the diseased region.
# [2] = case 1, horizontal impaction, 0.3 ml of 0.5% injection solution
# [3] = case 2, alveolar osteitis, 0.3 ml of 0.5% injection solution
# [4] = case 3, traumatic bone fracture, 0.1 ml of 0.5% injection solution
# [5] = case 4, dental root cyst, 0.2 ml of 0.5% injection solution
# [6] = case 5, alveolar osteitis, 0.3 ml of 0.5% injection solution
smiles,measurement,setting,value
"NCCCC(=O)N[C@@H](Cc1cnc[nH]1)C(=O)O [Homocarnosine, L-histidinyl-γ-aminobutylic acid]",Effect,"decubital ulcer; case 1, back (2 × 4 cm), 1% ointment 0.5-1.0 g once daily for 4 days",++
same,Effect,"decubital ulcer; case 2, nates (2 × 3 cm), 1% ointment 0.5-1.0 g once daily for 8 days",++
same,Effect,"aftha stomatitis; case 1, isolative aphtha",++
same,Effect,"aftha stomatitis; case 2, tip of the tongue, person",++
same,Effect,"aftha stomatitis; case 3, lower surface of the tongue, person",++
same,Hydroxyproline,"granulation; 3 mg/kg i.p., 7 granuloma",97.8 ± 10.1 % of control
same,Wet weight of granulation,"granulation; 3 mg/kg i.p., 18 granuloma",96.1 ± 5.6 % of control
same,Hydroxyproline,"granulation; 10 mg/kg i.p., 9 granuloma",127.6 ± 14.5 % of control
same,Wet weight of granulation,"granulation; 10 mg/kg i.p., 20 granuloma, p < 0.01",121.3 ± 5.7 % of control
same,Hydroxyproline,"granulation; 30 mg/kg i.p., 8 granuloma",123.9 ± 8.0 % of control
same,Wet weight of granulation,"granulation; 30 mg/kg i.p., 19 granuloma, p < 0.025",126.6 ± 7.3 % of control
same,Wet weight of granulation,"granulation; 50 mg/kg i.p., 20 granuloma",133.7 ± 7.2 % of control
same,Wet weight of granulation,"granulation; 70 mg/kg i.p., 24 granuloma",131.7 ± 7.8 % of control
same,Wet weight of granulation,"granulation; 90 mg/kg i.p., 20 granuloma",135.6 ± 7.2 % of control
same,Granulation formation (in words),"granulation; 10, 30, 50, 70 and 90 mg/kg (i.p.)",effective in promoting granulation formation
same,Hydroxyprolin amount (in words),granulation; relative to wet weight of granulations,increased in proportion to an increase in the wet weight of granulations
same,"Tensile Strength, % of control","surgical wounds; 0.06 mg/rat i.d., 18 skins",96.1 % of control
same,"Tensile Strength, X ± S.E.","surgical wounds; 0.06 mg/rat i.d., 18 skins",436.8 ± 27.6
same,"Tensile Strength, % of control","surgical wounds; 0.6 mg/rat i.d., 15 skins",108.6 % of control
same,"Tensile Strength, X ± S.E.","surgical wounds; 0.6 mg/rat i.d., 15 skins",493.3 ± 27.5
same,"Tensile Strength, % of control","surgical wounds; 6.0 mg/rat i.d., 18 skins",118.8 % of control
same,"Tensile Strength, X ± S.E.","surgical wounds; 6.0 mg/rat i.d., 18 skins, p < 0.01",539.6 ± 41.5
same,"Effect on surgical wounds, tensile strength on the 7th day (in words)","surgical wounds; subcutaneous, 0.6 and 6.0 mg/rat",efficacy is indicated by the tensile strength of wounds on the 7th day
same,Effect,"angulus infectiosus; person five, right, 0.5% paste 0.8 g × 3",++
same,Effect,"angulus infectiosus; person four, right and left, 0.5% paste 0.8 g × 6",+
same,Effect,"angulus infectiosus; person one, right, 0.5% paste 0.8 g × 3",++
same,Effect,"angulus infectiosus; person three, right, 0.5% paste 0.8 g × 3",++
same,Effect,"angulus infectiosus; person two, right and left, 0.5% paste 0.8 g × 6",+
same,Effect,"angulus infectiosus; person, left, 0.5% paste 0.8 g × 3",++
same,Effect (in words),"cervical erosion; case 1, C II, 2 tablets in one day",Cured
same,Effect (in words),"cervical erosion; case 2, C IIIa, 1 tablet daily for 7 days",Cured
same,Effect (in words),"cervical erosion; case 3, C IIIb, 2 tablets daily for 7 days",Cured
same,Effect (in words),"cervical erosion; case 4, C IIIc, 2 tablets daily for 14 days",Cured
same,Solubility in water,Solubility in water,readily soluble in water
same,Effect,"dermatitis; case 1, allergic dermatitis, 0.5% ointment 1.0 g twice daily",++
same,Effect,"dermatitis; case 2, geriatric itchiness, 0.5% ointment 0.5 g before sleeping",++
same,Partial ulcer recovery (in words),"dermatitis; case 2, geriatric itchiness, 0.5% ointment 0.5 g, partial, after one application",ulcer recovery was noted
same,Effect,"dermatitis; case 3, eczema, 0.5% ointment 1.0 g twice daily for 2 days",++
same,Effect,"dermatitis; case 4, burn (back of left hand), 0.5% ointment 1.0 g once daily for 4 days",++
same,Effect,"[1]; case 1, allergic rhinitis, 0.8 ml × 2",++
same,Effect,"[1]; case 2, inflamed respiratory tract, 1.0 ml × 1",++
same,Effect,"[1]; case 3, inflamed respiratory tract, 1.0 ml × 3",++
same,Effect,"[1]; case 4, tonsillitis, 1.0 ml × 3",++
same,Effect,"[1]; case 5, asthma, 1.0 ml twice daily for 10 days",++
same,Effect,"hemorrohoid; case 1, ractal bleeding, 1 tablet daily for 4 days, conjointly with 0.5% homocarnosine ointment",++
same,Effect,"hemorrohoid; case 2, inner hemorrhoids, 1 tablet daily for 14 days",++
same,Cure (Wound Healing),dental extraction wounds; [2],++
same,"Postoperative pains, 2 hours",dental extraction wounds; [2],-
same,"Postoperative pains, 12 hours",dental extraction wounds; [2],±
same,"Postoperative pains, 24 hours",dental extraction wounds; [2],-
same,Cure (Wound Healing),dental extraction wounds; [3],++
same,"Postoperative pains, 2 hours",dental extraction wounds; [3],-
same,"Postoperative pains, 12 hours",dental extraction wounds; [3],-
same,"Postoperative pains, 24 hours",dental extraction wounds; [3],-
same,Cure (Wound Healing),dental extraction wounds; [4],++
same,"Postoperative pains, 2 hours",dental extraction wounds; [4],-
same,"Postoperative pains, 12 hours",dental extraction wounds; [4],-
same,"Postoperative pains, 24 hours",dental extraction wounds; [4],-
same,Cure (Wound Healing),dental extraction wounds; [5],++
same,"Postoperative pains, 2 hours",dental extraction wounds; [5],-
same,"Postoperative pains, 12 hours",dental extraction wounds; [5],+
same,"Postoperative pains, 24 hours",dental extraction wounds; [5],-
same,Cure (Wound Healing),dental extraction wounds; [6],++
same,"Postoperative pains, 2 hours",dental extraction wounds; [6],-
same,"Postoperative pains, 12 hours",dental extraction wounds; [6],-
same,"Postoperative pains, 24 hours",dental extraction wounds; [6],-
same,Relapse,herpes zoster; 1 g of 5% paste,no relapse of the symptom
same,Pains,"herpes zoster; 1 g of 5% paste, in about one hour",the pains disappeared completely
same,Cysts,"herpes zoster; 5% paste, 1 g five times daily",discolored and dry
same,Herpes symptom,"herpes zoster; 5% paste, 1 g five times daily",cured after seven days
